Earlier results in patent US20210227865A1, “LOW GLYCEMIC COMPOSITION AND METHODS OF MAKING AND USING THEREOF” (Seattle Gummy Company, priority 2018, published 2021).

Experiments:
[1] = for sweetness compared with sucrose (in words): relative to sucrose (table sugar)
[2] = in vivo
[3] = FIG. 3 (trehalose), FIG. 4 (isomaltulose)

Row | Compound | sweetness compared with sucrose (in words) [1] | GI value [2] | also measured
1 | O=C(CO)[C@@H](O)[C@@H](O)[C@H](O)CO [Tagatose, tagatose] | nearly as sweet as sucrose |  | 
2 | OC[C@H]1O[C@@](CO)(O[C@H]2O[C@H](CO)[C@@H](O)[C@H](O)[C@H]2O)[C@@H](O)[C@@H]1O [sucrose] |  | 63 | 
3 | O=C(CO)[C@@H](O)[C@H](O)[C@H](O)CO [fructose] |  | 19 | 
4 | O=C(CO)[C@H](O)[C@H](O)[C@H](O)CO [Psicose, psicose] | identical to sucrose |  | sweetness relative to sucrose ([1]; relative to sucrose): 70%
5 | OC[C@H]1O[C@H](OC[C@H]2OC(O)(CO)[C@@H](O)[C@@H]2O)[C@H](O)[C@@H](O)[C@@H]1O (stereo partly drawn) [Isomaltulose, isomaltulose] |  | about 30 | effect on blood glucose levels (in words) [3]: does not cause a spike in glucose levels
6 | O=C(CO)[C@H](O)[C@@H](O)[C@H](O)CO [Sorbose, sorbose] | equivalent to sucrose in sweetness |  | 
7 | OC[C@H]1O[C@H](O[C@H]2O[C@H](CO)[C@@H](O)[C@H](O)[C@H]2O)[C@H](O)[C@@H](O)[C@@H]1O [trehalose] |  |  | effect on blood glucose levels (in words) [3]: does not cause a spike in glucose levels
